From paper PMC6400584, “Activation mechanism of ATP-sensitive K^+ channels explored with real-time nucleotide binding” (eLife, 2019)
Read-outs that look alike come from different tables or passages of the source.

Tests used:
SUR1-Y1353*/Kir6.2 = assay: Nucleotide wash-out (dissociation) time course; assay type: binding, Homo sapiens; details: for τ of MgTNP-ADP dissociation in the presence of drug / τ of MgTNP-ATP dissociation in the presence of drug: 500 µM tolbutamide or 340 µM diazoxide; for t0.5 (time to 50% dissociation): no drug, mean ± SD of individual fits; for reduction of off-rate in the presence of Mg2+ (fold / factor): with vs without Mg2+
SUR1/Kir6.2 = target: T1, SUR1/Kir6.2 (Homo sapiens, UniProt Q09428+Q14654); set-up: method as in Proks et al., 2010; details: 100 μM in Mg2+-free solutions; wild-type; ref Proks et al., 2010; cited from earlier work
T1 construct: expressed in transfected cells; host or cells: HEK-293T

SUR1/Kir6.2-G334D = target: T2, SUR1/Kir6.2-G334D (Homo sapiens, UniProt Q09428); assay: Current activation in inside-out patches; assay type: biochemical
T2 construct: expressed in transfected cells; host or cells: HEK-293T
Method: (§1) Currents were recorded from inside-out membrane patches excised from transfected HEK-293T cells. Pipettes were pulled to a resistance of 1–5 MΩ and filled with an extracellular solution containing (in mM) 140 KCl, 1.2 MgCl2, 2.6 CaCl2, and 10 HEPES, pH 7.4 or 140 KCl, 1 EGTA, 10 HEPES, pH 7.3. The intracellular (bath) solutions contained either (in mM) 107 KCl, 2 MgCl2, 1 CaCl2, 10 EGTA, and 10 HEPES, pH 7.2 for experiments showing nucleotide-dependent activation or 140 KCl, 1 EDTA, 1 EGTA, 10 HEPES pH 7.3 for experiments showing nucleotide-dependent inhibition. Nucleotides were added as indicated. Patches were perfused with an 8-channel µFlow perfusion system. Data were acquired at a holding potential of −60 mV using an Axopatch 200B amplifier and Digidata 1322A digitizer with pClamp 9.0 software (Molecular Devices). Currents were digitized at 10 kHz and low-pass filtered at 1 kHz. KATP channels run down in excised patches (reviewed by Proks et al.) ([Proks et al., 2016]). For inhibitory concentration-response relationships, rundown was corrected by alternating test nucleotide solutions with nucleotide-free (control) solutions and expressing the test currents as a fraction of the average of the control currents before and after the test solution. […]

SUR1-T1397*/Kir6.2 [1] = assay: Current inhibition in inside-out patches in the absence of Mg2+; assay type: biochemical, Homo sapiens
Method: as §1

SUR1-Y1353*,K2A/Kir6.2 [2] = target: T3, SUR1-Y1353*,K2A/Kir6.2 (Homo sapiens, UniProt Q09428, K1384A/Y1353X); assay: Nucleotide wash-out (dissociation) time course; assay type: binding; details: absence of Mg2+
T3 construct: the signals we measured (fluorescence) were derived solely from full-length (i.e. ANAP-labeled) channels; expressed in transfected cells; host or cells: HEK-293T
Source text: To prevent accumulation of fluorescent nucleotides in the bath, FluoroDishes were perfused with either (in mM) 140 KCl, 20 NaCl, 10 MgCl2, 10 HEPES pH 7.2 with NaOH or 140 KCl, 20 NaCl, 1 EDTA, 10 HEPES pH 7.2 with NaOH using a peristaltic pump (Ismatec; Wertheim, Germany). Unroofed membranes were directly perfused with nucleotides using an 8-channel µFlow perfusion system (ALA Scientific Instruments; Farmingdale, NY). Solution change with the µFlow was rapid (τ = 0.73 s±0.02 s, n=5) as measured from single exponential fits to wash-out of 50 µM tetramethylrhodamine-5-maleimide (TMRM) after switching to a solution with no TMRM. TMRM was excited with a 565 nm LED with a D540/25X band-pass filter (Chroma) and DM565 dichroic mirror (Chroma). […] Solution exchange was also monitored during experiments with TNP-nucleotides by examining the emission spectrum of a background region in each image. […]
To measure the time course of nucleotide unbinding, the fluorescence at the TNP-nucleotide peak (usually around 560 nm) was plotted as a function of time after exchanging to a zero-nucleotide solution, as following the time course of the rise in ANAP fluorescence was complicated by photobleaching. After complete wash out of nucleotides, the fluorescence at 560 nm was non-zero, as the shoulder of the ANAP emission spectrum extends into the range of wavelengths at which TNP-nucleotides emit. […]

[3] = target: SUR1-Y1353*/Kir6.2 (NBS2 of SUR1) (Homo sapiens, UniProt Q09428, Y1353X); assay: FRET binding of TNP-nucleotides to ANAP-labeled KATP in unroofed membrane fragments
Method: (§2) Unroofed membranes were prepared using a modification of a protocol from the Heuser laboratory ([Heuser, 2000]; [Usukura et al., 2012]; [Zagotta et al., 2016]). Briefly, a coverslip containing adherent cells was removed from the cell culture medium and a small piece (0.5–1 cm) was broken off using jewelers forceps (#5) and washed in phosphate buffered saline (PBS, Thermo Fisher Scientific) diluted 1:3 in deionized water. Cells were exposed 3 × 10 s to a solution of 0.01% poly-L-lysine (Sigma) with intervening washes in diluted PBS to adhere them more firmly to the coverslips. The coverslip fragment was then placed in a 30 mm culture dish filled with 2–3 mL of 1/3X PBS and sonicated very briefly (~100 ms) using a probe sonicator (Vibra-cell; Newtown, CT), leaving behind adherent plasma membrane and sometimes additional cellular material. The unroofed fragments in our experiments were sometimes visible under bright-field illumination, a potential result of our modified ‘unroofing’ procedure. Morphologically, such cell fragments resemble the ‘partially unroofed’ cells identified by Usukura et al. ([Usukura et al., 2012]) Cells cultured on poly-D-lysine coated FluoroDishes were unroofed in diluted PBS with no additional poly-L-lysine treatment. This procedure yielded a higher percentage of completely unroofed plasma membranes (i.e. nearly invisible with brightfield illumination).
(§3) Unroofed membrane fragments were imaged directly on FluoroDishes (FD35-PDL-100, World Precision Instruments) or on broken coverslips placed in a FluoroDish (FD3510, World Precision instruments) using a Nikon TE2000-U microscope equipped with a 40x (S Fluor, 1.3 NA; Nikon, Kingston Upon Thames, UK) or 100x (Apo TIRF, 1.49 NA, Nikon) oil-immersion objective and low-fluorescence immersion oil (MOIL-30, Olympus; Southend-on-Sea, UK) or a 60x water immersion objective (Plan Apo VC, 1.20 NA, Nikon). ANAP was excited using a ThorLabs LED source (LED4D067) at 385 nm connected to the microscope using a liquid light guide in series with a 390/18 nm band-pass filter (MF390-18, ThorLabs; Newton, NJ) and MD416 dichroic (ThorLabs). For imaging, emitted light was filtered through a 479/40 nm band-pass filter (MF479-40, ThorLabs). GFP-tagged constructs were imaged using a similar setup with excitation at 490 nm, a 480/40 band-pass excitation filter (Chroma; Bellows Falls, VT), a DM505 dichroic mirror (Chroma), and 510 nm long-pass emission filter (Chroma). All images were acquired using a PIXIS 400B CCD camera (Princeton Instruments; Trenton, NJ). For spectroscopy, ANAP was excited as above, but emitted light was passed through a 400 nm long-pass filter (FEL0400, ThorLabs) and directed through the slit of an Isoplane 160 spectrometer (300 g/mm grating; Princeton Instruments) in series with the camera. The acquired images retained spatial information in the y-dimension, with the x-dimension replaced by wavelength (Figure 1—figure supplement 1a). Exposure times were typically 100 ms for brightfield images, 1–10 s for steady-state spectra and 1–5 s for time-course experiments.
(§4) To prevent accumulation of fluorescent nucleotides in the bath, FluoroDishes were perfused with either (in mM) 140 KCl, 20 NaCl, 10 MgCl2, 10 HEPES pH 7.2 with NaOH or 140 KCl, 20 NaCl, 1 EDTA, 10 HEPES pH 7.2 with NaOH using a peristaltic pump (Ismatec; Wertheim, Germany). Unroofed membranes were directly perfused with nucleotides using an 8-channel µFlow perfusion system (ALA Scientific Instruments; Farmingdale, NY). Solution change with the µFlow was rapid (τ = 0.73 s±0.02 s, n=5) as measured from single exponential fits to wash-out of 50 µM tetramethylrhodamine-5-maleimide (TMRM) after switching to a solution with no TMRM. TMRM was excited with a 565 nm LED with a D540/25X band-pass filter (Chroma) and DM565 dichroic mirror (Chroma). Emitted light was collected through a D605/55M band-pass filter (Chroma). […]

SUR1-Y1353*,K2A/Kir6.2 [4] = target: T3, SUR1-Y1353*,K2A/Kir6.2; assay: as above; details: absence of Mg2+
Method: as §2, §3, §4

SUR1-T1397*/Kir6.2 [5] = target: T4, SUR1-T1397*/Kir6.2 (Homo sapiens, UniProt Q09428, T1397X); assay: as above; details: absence of Mg2+
T4 construct: confirmed that >95% of SUR1-T1397* was full length; expressed in transfected cells; host or cells: HEK-293T
Method: as §2, §3, §4

[6] = absence of Mg2+, fit to combined data
[7] = absence of Mg2+ (1 mM EDTA), mean ± SEM of fits to individual experiments
[8] = mean ± SEM of fits to individual experiments

Compound	τ of MgTNP-ADP dissociation in the presence of drug (SUR1-Y1353*/Kir6.2; fit to combined data) [s]	τ of MgTNP-ATP dissociation in the presence of drug (SUR1-Y1353*/Kir6.2; fit to combined data) [s]	t0.5 (time to 50% dissociation) (SUR1-Y1353*/Kir6.2; absence of Mg2+) [s]	reduction of off-rate in the presence of Mg2+ (fold / factor) (SUR1-Y1353*/Kir6.2)	Emax [3, 7]	h [3, 7]	Emax [3, 6]	h [3, 6]	Emax (SUR1-Y1353*,K2A/Kir6.2 [4]; fit to combined data)	h (SUR1-Y1353*,K2A/Kir6.2 [4]; fit to combined data)	Emax (SUR1-Y1353*,K2A/Kir6.2 [4]; [8])	h (SUR1-Y1353*,K2A/Kir6.2 [4]; [8])	EC50 (SUR1-T1397*/Kir6.2 [5]; fit to combined data) [µM]	Emax (SUR1-T1397*/Kir6.2 [5]; fit to combined data)	h (SUR1-T1397*/Kir6.2 [5]; fit to combined data)	EC50 (SUR1-T1397*/Kir6.2 [5]; [8]) [µM]	Emax (SUR1-T1397*/Kir6.2 [5]; [8])	h (SUR1-T1397*/Kir6.2 [5]; [8])	other results
CC1=NS(=O)(=O)c2cc(Cl)ccc2N1 [diazoxide]	52.6	60.5																	
Nc1ncnc2c1ncn2[C@@H]1O[C@H](COP(=O)(O)OP(=O)(O)O)[C@@H](O)[C@H]1O [ADP]																			reduction in current (SUR1/Kir6.2): ~ 60%
CCCCNC(=O)NS(=O)(=O)c1ccc(C)cc1 [tolbutamide]	6.4	6.3																	effect on currents (SUR1/Kir6.2-G334D): inhibited
Nc1ncnc2c1ncn2[C@@H]1O[C@H](COP(=O)(O)OP(=O)(O)OP(=O)(O)O)[C@@H](O)[C@H]1O [ATP]																			IC50 (SUR1-T1397*/Kir6.2 [1]; Equation 4 fit to combined data): 49.2 µM; IC50 (SUR1-T1397*/Kir6.2 [1]; mean ± SEM of fits of Equation 4 to individual experiments): 53.9 ± 9.4 µM
trinitrophenyl-ADP [TNP-ADP]			2.9 ± 0.5	~ 5	0.95 ± 0.01	0.79 ± 0.04	0.95 ± 0.02	0.8 ± 0.1	0.91 ± 0.02	0.9 ± 0.1	0.92 ± 0.02	0.88 ± 0.05	5.6	0.98 ± 0.05	0.7 ± 0.1	6.3 ± 2.3	0.98 ± 0.02	0.84 ± 0.13	τ of dissociation (single exponential) (SUR1-Y1353*/Kir6.2; [6]): 4.2 s; τ of dissociation (single exponential) (SUR1-Y1353*,K2A/Kir6.2 [2]; fit to combined data): 5.4 s; t0.5 (time to 50% dissociation) (SUR1-Y1353*,K2A/Kir6.2 [2]; mean ± SD): 3.8 ± 1.0 s; EC50 ([3]; absence of Mg2+ (1 mM EDTA), mean ± SEM of fits to individual experiments, read-out: EC50): 6.8 ± 1.3 µM; EC50 ([3]; absence of Mg2+, fit to combined data, read-out: EC50): 6.1 µM; effect of increasing concentration to 10 mM on amount of quenching ([3]; absence of Mg2+, n = 3, data not shown): did not significantly change; EC50 (SUR1-Y1353*,K2A/Kir6.2 [4]; fit to combined data): 4.4 µM; EC50 (SUR1-Y1353*,K2A/Kir6.2 [4]; [8]): 5 ± 1 µM
Nc1ncnc2c1ncn2[C@@H]1O[C@H](COP(=O)(O)OP(=O)(O)OP(=O)(O)O)[C@H]2OC3(O[C@H]21)C([N+](=O)[O-])=CC(=[N+]([O-])[O-])C=C3[N+](=O)[O-] (stereo partly drawn) [TNP-ATP, trinitrophenyl-ATP]			4.8 ± 1.5	2.2	0.83 ± 0.03	0.88 ± 0.06	0.84 ± 0.04	0.8 ± 0.1	0.87 ± 0.03	0.9 ± 0.2	0.90 ± 0.03	0.98 ± 0.13	4.8	0.94 ± 0.02	0.8 ± 0.1	4.7 ± 0.8	0.94 ± 0.01	0.83 ± 0.09	A1 of dissociation (bi-exponential amplitude) (SUR1-Y1353*/Kir6.2; [6]): 0.65 ± 0.06; A2 of dissociation (bi-exponential amplitude) (SUR1-Y1353*/Kir6.2; [6]): 0.35 ± 0.06; τ1 of dissociation (bi-exponential) (SUR1-Y1353*/Kir6.2; [6]): 4.5 s; τ2 of dissociation (bi-exponential) (SUR1-Y1353*/Kir6.2; [6]): 28.2 s; EC50 ([3]; EC50, absence of Mg2+ (1 mM EDTA), mean ± SEM of fits to individual experiments): 12.8 ± 5.6 µM; EC50 ([3]; EC50, absence of Mg2+, fit to combined data): 8.5 µM
